# Experiments:
# Experiment in all cases: Caliper, Mobility shift assay off-chip
# PIM1 (human) = PIM1 (human) (UniProt P11309)
# CAMK4 (human) = CAMK4 (human) (UniProt Q16566)
# INSR (human) = INSR (human) (UniProt P06213)
# RPS6KA3 KD1 KD2 (human) = RPS6KA3 KD1 KD2 (human) (UniProt P51812)
# SGK3 (human) = SGK3 (human) (UniProt Q96BR1)
# PRKCD (human) = PRKCD (human) (UniProt Q05655)
# BTK (human) = BTK (human) (UniProt Q06187); conditions: compound 1.0 µM
# AKT2 (human) = AKT2 (human) (UniProt P31751)
# MAPK12 (human) = MAPK12 (human) (UniProt P53778)
# PDGFRA (human) = PDGFRA (human) (UniProt P16234)
# AURKB (human) = AURKB (human) (UniProt Q96GD4)
# BRSK2 (human) = BRSK2 (human) (UniProt Q8IWQ3)
# PAK2 (human) = PAK2 (human) (UniProt Q13177)
# Chain of PAK2 (human) (Q13177 whole entry, looked up): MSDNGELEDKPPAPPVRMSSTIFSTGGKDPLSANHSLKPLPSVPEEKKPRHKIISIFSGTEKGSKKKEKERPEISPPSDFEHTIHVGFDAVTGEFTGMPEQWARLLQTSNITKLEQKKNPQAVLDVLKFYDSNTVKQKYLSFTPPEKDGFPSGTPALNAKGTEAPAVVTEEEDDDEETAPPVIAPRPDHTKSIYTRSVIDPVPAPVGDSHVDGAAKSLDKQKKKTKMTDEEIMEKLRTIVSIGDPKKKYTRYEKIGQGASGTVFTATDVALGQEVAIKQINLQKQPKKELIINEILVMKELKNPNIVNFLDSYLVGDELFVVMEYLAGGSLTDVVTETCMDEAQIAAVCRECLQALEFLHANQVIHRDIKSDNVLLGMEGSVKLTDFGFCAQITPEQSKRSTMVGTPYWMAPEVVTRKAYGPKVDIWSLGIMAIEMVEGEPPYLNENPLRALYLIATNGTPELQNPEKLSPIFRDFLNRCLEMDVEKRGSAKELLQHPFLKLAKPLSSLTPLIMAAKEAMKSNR
# PRKCG (human) = PRKCG (human) (UniProt P05129)
# RPS6KB1 (human) = RPS6KB1 (human) (UniProt P23443)
# IGF1R (human) = IGF1R (human) (UniProt P08069)
# Chain of IGF1R (human) (P08069 whole entry, looked up): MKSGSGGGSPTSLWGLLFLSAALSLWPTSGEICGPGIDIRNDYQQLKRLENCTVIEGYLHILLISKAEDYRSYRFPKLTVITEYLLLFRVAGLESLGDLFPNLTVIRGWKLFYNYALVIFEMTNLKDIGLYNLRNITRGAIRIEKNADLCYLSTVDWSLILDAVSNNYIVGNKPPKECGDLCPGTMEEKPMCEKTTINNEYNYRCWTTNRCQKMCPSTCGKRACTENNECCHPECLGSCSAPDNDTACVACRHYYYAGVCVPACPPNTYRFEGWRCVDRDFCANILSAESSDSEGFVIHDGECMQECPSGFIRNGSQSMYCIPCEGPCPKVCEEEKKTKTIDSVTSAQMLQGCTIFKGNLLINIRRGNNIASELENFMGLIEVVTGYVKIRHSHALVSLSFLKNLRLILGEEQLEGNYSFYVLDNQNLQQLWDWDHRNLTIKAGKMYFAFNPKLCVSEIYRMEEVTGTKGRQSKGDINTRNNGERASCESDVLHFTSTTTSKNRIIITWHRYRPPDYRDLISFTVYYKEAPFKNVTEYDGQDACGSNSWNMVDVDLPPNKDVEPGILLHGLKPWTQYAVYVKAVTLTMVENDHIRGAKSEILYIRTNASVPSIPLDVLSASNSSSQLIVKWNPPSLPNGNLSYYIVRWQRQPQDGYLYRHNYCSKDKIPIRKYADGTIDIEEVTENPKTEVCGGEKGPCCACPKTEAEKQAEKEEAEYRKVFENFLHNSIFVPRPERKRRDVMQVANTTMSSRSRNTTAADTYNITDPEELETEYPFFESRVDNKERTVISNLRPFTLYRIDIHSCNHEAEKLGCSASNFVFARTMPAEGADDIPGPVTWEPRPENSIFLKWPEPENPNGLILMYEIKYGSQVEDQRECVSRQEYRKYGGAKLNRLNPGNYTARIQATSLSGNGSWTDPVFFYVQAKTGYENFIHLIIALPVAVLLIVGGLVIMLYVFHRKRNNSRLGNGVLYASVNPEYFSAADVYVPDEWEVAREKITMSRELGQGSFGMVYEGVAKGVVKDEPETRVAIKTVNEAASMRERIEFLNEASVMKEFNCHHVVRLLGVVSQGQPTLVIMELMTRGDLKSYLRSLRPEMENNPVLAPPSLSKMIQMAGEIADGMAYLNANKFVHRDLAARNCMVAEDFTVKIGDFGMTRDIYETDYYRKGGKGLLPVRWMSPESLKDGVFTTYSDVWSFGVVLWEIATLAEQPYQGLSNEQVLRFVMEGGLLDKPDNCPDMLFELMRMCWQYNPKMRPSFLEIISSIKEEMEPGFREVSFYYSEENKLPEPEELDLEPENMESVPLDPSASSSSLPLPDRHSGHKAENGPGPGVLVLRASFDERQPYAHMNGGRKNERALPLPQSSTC
# MAPKAPK3 (human) = MAPKAPK3 (human) (UniProt Q16644)
# FYN (human) = FYN (human) (UniProt P06241)
# CHEK2 (human) = CHEK2 (human) (UniProt O96017)
# TSSK2 (human) = TSSK2 (human) (UniProt Q96PF2)
# Chain of TSSK2 (human) (Q96PF2 whole entry, looked up): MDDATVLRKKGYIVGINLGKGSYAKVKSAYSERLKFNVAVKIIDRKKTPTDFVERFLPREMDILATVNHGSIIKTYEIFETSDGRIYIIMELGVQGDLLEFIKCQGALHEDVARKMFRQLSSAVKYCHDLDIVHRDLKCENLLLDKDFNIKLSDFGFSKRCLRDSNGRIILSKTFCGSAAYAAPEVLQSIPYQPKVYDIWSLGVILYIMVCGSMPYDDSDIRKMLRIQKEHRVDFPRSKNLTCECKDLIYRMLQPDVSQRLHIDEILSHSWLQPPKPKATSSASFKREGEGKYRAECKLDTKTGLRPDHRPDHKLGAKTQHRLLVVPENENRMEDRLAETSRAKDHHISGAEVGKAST
# FGFR2 (human) = FGFR2 (human) (UniProt P21802)
# Chain of FGFR2 (human) (P21802 whole entry, looked up): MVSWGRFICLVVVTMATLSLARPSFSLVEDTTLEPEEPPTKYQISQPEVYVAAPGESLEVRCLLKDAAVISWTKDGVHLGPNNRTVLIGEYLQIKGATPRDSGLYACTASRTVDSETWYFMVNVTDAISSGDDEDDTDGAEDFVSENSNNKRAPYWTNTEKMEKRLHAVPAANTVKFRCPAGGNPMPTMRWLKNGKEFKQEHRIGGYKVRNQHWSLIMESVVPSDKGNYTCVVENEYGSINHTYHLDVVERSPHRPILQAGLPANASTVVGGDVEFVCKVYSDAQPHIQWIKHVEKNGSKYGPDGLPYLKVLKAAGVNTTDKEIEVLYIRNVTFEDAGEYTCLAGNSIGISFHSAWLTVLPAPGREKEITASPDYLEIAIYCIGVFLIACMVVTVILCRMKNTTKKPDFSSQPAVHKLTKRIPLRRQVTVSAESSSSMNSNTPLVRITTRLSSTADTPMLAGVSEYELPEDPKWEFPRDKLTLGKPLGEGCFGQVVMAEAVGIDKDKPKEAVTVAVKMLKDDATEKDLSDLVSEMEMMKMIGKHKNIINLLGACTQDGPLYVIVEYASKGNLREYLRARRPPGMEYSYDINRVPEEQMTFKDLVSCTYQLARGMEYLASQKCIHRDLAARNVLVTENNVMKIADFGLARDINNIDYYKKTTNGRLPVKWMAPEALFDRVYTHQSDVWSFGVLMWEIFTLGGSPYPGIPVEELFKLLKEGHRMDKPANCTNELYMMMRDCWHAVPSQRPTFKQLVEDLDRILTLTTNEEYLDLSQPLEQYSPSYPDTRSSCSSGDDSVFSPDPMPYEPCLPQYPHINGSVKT
# RPS6KA5 KD1 KD2 (human) = RPS6KA5 KD1 KD2 (human) (UniProt O75582)
# [1] = test system: FGFR2 (human), P21802 [N549H]
# Chain of FGFR2 (human), P21802 [N549H] (P21802 whole entry N549H, looked up): as the sequence (P21802 whole entry, looked up) above, with N549H counted along it
# DCLK2 (human) = DCLK2 (human) (UniProt Q8N568)
# Chain of DCLK2 (human) (Q8N568 whole entry, looked up): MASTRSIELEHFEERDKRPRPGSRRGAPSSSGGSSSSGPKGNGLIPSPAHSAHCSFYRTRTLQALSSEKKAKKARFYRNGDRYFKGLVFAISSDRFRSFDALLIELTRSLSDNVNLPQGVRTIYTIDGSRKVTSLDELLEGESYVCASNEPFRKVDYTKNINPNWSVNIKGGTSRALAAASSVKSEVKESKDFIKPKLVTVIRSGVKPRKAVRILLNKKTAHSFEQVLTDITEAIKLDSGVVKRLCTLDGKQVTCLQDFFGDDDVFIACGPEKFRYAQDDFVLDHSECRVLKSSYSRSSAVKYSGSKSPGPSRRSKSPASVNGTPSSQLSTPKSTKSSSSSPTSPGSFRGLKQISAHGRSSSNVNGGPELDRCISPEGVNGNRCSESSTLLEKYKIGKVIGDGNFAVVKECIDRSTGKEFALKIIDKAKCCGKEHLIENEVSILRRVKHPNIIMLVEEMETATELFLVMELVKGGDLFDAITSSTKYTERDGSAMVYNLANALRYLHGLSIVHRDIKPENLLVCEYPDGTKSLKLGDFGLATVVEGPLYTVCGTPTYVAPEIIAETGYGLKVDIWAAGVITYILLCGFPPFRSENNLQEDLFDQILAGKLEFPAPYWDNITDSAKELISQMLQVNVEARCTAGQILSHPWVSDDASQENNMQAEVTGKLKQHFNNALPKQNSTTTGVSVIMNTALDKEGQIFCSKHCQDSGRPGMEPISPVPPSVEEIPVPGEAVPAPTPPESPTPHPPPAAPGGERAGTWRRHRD
# [2] = test system: ABL1 (human), P00519 [Q252H]
# CAMK2G (human) = CAMK2G (human) (UniProt Q13555)
# PRKCB1 (human) = PRKCB1 (human) (UniProt P05771)
# MAPK1 (human) = MAPK1 (human) (UniProt P28482)
# PRKD3 (human) = PRKD3 (human) (UniProt O94806)
# FER (human) = FER (human) (UniProt P16591)
# SRC (human) = SRC (human) (UniProt P12931)
# FLT3 (human) = FLT3 (human) (UniProt P36888)
# Chain of FLT3 (human) (P36888 whole entry, looked up): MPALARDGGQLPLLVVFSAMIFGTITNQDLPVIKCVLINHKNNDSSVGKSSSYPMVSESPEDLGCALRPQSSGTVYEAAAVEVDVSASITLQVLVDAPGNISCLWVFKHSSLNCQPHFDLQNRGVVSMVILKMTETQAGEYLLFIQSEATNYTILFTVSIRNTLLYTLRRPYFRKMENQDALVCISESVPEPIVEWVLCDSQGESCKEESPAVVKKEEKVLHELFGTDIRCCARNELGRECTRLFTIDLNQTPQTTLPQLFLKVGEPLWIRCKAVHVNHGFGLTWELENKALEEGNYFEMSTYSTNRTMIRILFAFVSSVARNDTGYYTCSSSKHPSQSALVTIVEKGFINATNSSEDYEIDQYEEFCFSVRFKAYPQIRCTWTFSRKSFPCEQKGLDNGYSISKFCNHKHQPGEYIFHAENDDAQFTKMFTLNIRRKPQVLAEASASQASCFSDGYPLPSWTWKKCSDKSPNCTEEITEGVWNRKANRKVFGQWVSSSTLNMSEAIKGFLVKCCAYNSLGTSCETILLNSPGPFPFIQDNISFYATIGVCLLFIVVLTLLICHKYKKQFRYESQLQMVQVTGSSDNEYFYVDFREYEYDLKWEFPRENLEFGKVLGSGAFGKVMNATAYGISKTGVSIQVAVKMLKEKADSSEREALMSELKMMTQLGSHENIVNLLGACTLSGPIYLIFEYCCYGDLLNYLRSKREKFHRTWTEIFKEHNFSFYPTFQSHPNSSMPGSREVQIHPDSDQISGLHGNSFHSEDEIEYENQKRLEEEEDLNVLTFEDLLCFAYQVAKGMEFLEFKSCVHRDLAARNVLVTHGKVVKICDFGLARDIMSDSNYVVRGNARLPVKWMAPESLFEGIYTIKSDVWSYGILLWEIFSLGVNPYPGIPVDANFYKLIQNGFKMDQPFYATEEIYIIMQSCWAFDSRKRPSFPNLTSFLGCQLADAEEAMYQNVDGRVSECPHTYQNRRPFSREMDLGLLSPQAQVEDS
# AKT1 (human) = AKT1 (human) (UniProt P31749)
# FGFR3 (human) = FGFR3 (human) (UniProt P22607)
smiles,measurement,setting,value
Cn1cc(-c2cnc3ccc4ccc(CS(=O)(=O)NCC5CCCCN5)cc4c(=O)c3c2)cn1 (stereo not drawn),inhibition,PIM1 (human); compound 0.1 µM,-4.7%
same,inhibition,PIM1 (human); compound 1.0 µM,-8.3%
same,inhibition,CAMK4 (human); compound 0.1 µM,-1.9%
same,inhibition,CAMK4 (human); compound 1.0 µM,-4.2%
same,inhibition,INSR (human); compound 0.1 µM,-128%
same,inhibition,INSR (human); compound 1.0 µM,-2%
same,inhibition,RPS6KA3 KD1 KD2 (human); compound 0.1 µM,0.2%
same,inhibition,RPS6KA3 KD1 KD2 (human); compound 1.0 µM,-6%
same,inhibition,SGK3 (human); compound 0.1 µM,0.3%
same,inhibition,SGK3 (human); compound 1.0 µM,-0.7%
same,inhibition,PRKCD (human); compound 0.1 µM,-38.2%
same,inhibition,PRKCD (human); compound 1.0 µM,-8.2%
same,inhibition,BTK (human),65%
same,inhibition,AKT2 (human); compound 0.1 µM,0.7%
same,inhibition,AKT2 (human); compound 1.0 µM,1.9%
same,inhibition,MAPK12 (human); compound 0.1 µM,-3.3%
same,inhibition,MAPK12 (human); compound 1.0 µM,-11.8%
same,inhibition,PDGFRA (human); compound 0.1 µM,17.5%
same,inhibition,AURKB (human); compound 0.1 µM,34.7%
same,inhibition,BRSK2 (human); compound 0.1 µM,-1.3%
same,inhibition,BRSK2 (human); compound 1.0 µM,-9.5%
same,inhibition,PAK2 (human); compound 0.1 µM,-7.9%
same,inhibition,PAK2 (human); compound 1.0 µM,0.9%
same,inhibition,PRKCG (human); compound 0.1 µM,6.2%
same,inhibition,PRKCG (human); compound 1.0 µM,2.7%
same,inhibition,RPS6KB1 (human); compound 0.1 µM,-2.7%
same,inhibition,RPS6KB1 (human); compound 1.0 µM,0%
same,inhibition,IGF1R (human); compound 0.1 µM,4.9%
same,inhibition,IGF1R (human); compound 1.0 µM,-8.3%
same,inhibition,MAPKAPK3 (human); compound 0.1 µM,-2.7%
same,inhibition,FYN (human); compound 0.1 µM,4.37%
same,inhibition,FYN (human); compound 1.0 µM,15.1%
same,inhibition,CHEK2 (human); compound 0.1 µM,4.63%
same,inhibition,CHEK2 (human); compound 1.0 µM,-0.5%
same,inhibition,TSSK2 (human); compound 0.1 µM,0.7%
same,inhibition,FGFR2 (human); compound 0.1 µM,3%
same,inhibition,RPS6KA5 KD1 KD2 (human); compound 0.1 µM,0.7%
same,inhibition,RPS6KA5 KD1 KD2 (human); compound 1.0 µM,-0.4%
same,inhibition,[1]; compound 0.1 µM,-2.9%
same,inhibition,DCLK2 (human); compound 0.1 µM,-6%
same,inhibition,DCLK2 (human); compound 1.0 µM,-0.3%
same,inhibition,[2]; compound 0.1 µM,1.4%
same,inhibition,CAMK2G (human); compound 0.1 µM,-7.4%
same,inhibition,PRKCB1 (human); compound 0.1 µM,-20.8%
same,inhibition,PRKCB1 (human); compound 1.0 µM,-18.2%
same,inhibition,MAPK1 (human); compound 0.1 µM,1.1%
same,inhibition,MAPK1 (human); compound 1.0 µM,-4.4%
same,inhibition,PRKD3 (human); compound 0.1 µM,-11.5%
same,inhibition,PRKD3 (human); compound 1.0 µM,-4.4%
same,inhibition,FER (human); compound 0.1 µM,1.2%
same,inhibition,SRC (human); compound 0.1 µM,3.2%
same,inhibition,SRC (human); compound 1.0 µM,2.1%
same,inhibition,FLT3 (human); compound 0.1 µM,11%
same,inhibition,FLT3 (human); compound 1.0 µM,36.8%
same,inhibition,AKT1 (human); compound 0.1 µM,12.6%
same,inhibition,AKT1 (human); compound 1.0 µM,5.2%
same,inhibition,FGFR3 (human); compound 0.1 µM,-12.6%
Cn1cc(-c2cnc3ccc4ccc(CS(N)(=O)=O)cc4c(=O)c3c2)cn1,inhibition,PIM1 (human); compound 0.1 µM,-4.1%
same,inhibition,PIM1 (human); compound 1.0 µM,3.7%
same,inhibition,CAMK4 (human); compound 0.1 µM,-1.6%
same,inhibition,CAMK4 (human); compound 1.0 µM,-6.4%
same,inhibition,INSR (human); compound 0.1 µM,12%
same,inhibition,INSR (human); compound 1.0 µM,6.4%
same,inhibition,RPS6KA3 KD1 KD2 (human); compound 0.1 µM,1.2%
same,inhibition,RPS6KA3 KD1 KD2 (human); compound 1.0 µM,-1.7%
same,inhibition,SGK3 (human); compound 0.1 µM,-1.4%
same,inhibition,SGK3 (human); compound 1.0 µM,3.9%
same,inhibition,PRKCD (human); compound 0.1 µM,5.1%
same,inhibition,AKT2 (human); compound 0.1 µM,1.7%
same,inhibition,AKT2 (human); compound 1.0 µM,7.1%
same,inhibition,MAPK12 (human); compound 0.1 µM,-5.4%
same,inhibition,MAPK12 (human); compound 1.0 µM,2.9%
same,inhibition,PDGFRA (human); compound 0.1 µM,-19.1%
same,inhibition,PDGFRA (human); compound 1.0 µM,15.5%
same,inhibition,AURKB (human); compound 0.1 µM,41.7%
same,inhibition,AURKB (human); compound 1.0 µM,75%
same,inhibition,PAK2 (human); compound 0.1 µM,1.7%
same,inhibition,PAK2 (human); compound 1.0 µM,0.8%
same,inhibition,PRKCG (human); compound 0.1 µM,-1.4%
same,inhibition,RPS6KB1 (human); compound 0.1 µM,10%
same,inhibition,RPS6KB1 (human); compound 1.0 µM,13.5%
same,inhibition,IGF1R (human); compound 0.1 µM,-3.7%
same,inhibition,IGF1R (human); compound 1.0 µM,1.8%
same,inhibition,MAPKAPK3 (human); compound 0.1 µM,5.4%
same,inhibition,MAPKAPK3 (human); compound 1.0 µM,5.7%
same,inhibition,FYN (human); compound 0.1 µM,-3.7%
same,inhibition,FYN (human); compound 1.0 µM,6%
same,inhibition,CHEK2 (human); compound 0.1 µM,-3.5%
same,inhibition,CHEK2 (human); compound 1.0 µM,0.7%
same,inhibition,TSSK2 (human); compound 0.1 µM,-37%
same,inhibition,TSSK2 (human); compound 1.0 µM,10.5%
same,inhibition,FGFR2 (human); compound 0.1 µM,21.8%
same,inhibition,FGFR2 (human); compound 1.0 µM,47.9%
same,inhibition,RPS6KA5 KD1 KD2 (human); compound 0.1 µM,8%
same,inhibition,RPS6KA5 KD1 KD2 (human); compound 1.0 µM,4.1%
same,inhibition,[1]; compound 0.1 µM,15.5%
same,inhibition,[1]; compound 1.0 µM,40.5%
same,inhibition,DCLK2 (human); compound 0.1 µM,1.7%
same,inhibition,DCLK2 (human); compound 1.0 µM,8.4%
same,inhibition,[2]; compound 0.1 µM,-0.1%
same,inhibition,[2]; compound 1.0 µM,24.9%
same,inhibition,CAMK2G (human); compound 0.1 µM,-17.9%
same,inhibition,CAMK2G (human); compound 1.0 µM,-1.6%
same,inhibition,PRKCB1 (human); compound 0.1 µM,-9.3%
same,inhibition,MAPK1 (human); compound 0.1 µM,-5.5%
same,inhibition,MAPK1 (human); compound 1.0 µM,0.8%
same,inhibition,PRKD3 (human); compound 0.1 µM,-8.8%
same,inhibition,PRKD3 (human); compound 1.0 µM,-1.8%
same,inhibition,FER (human); compound 0.1 µM,-53.2%
same,inhibition,FER (human); compound 1.0 µM,-24.2%
same,inhibition,SRC (human); compound 0.1 µM,0.2%
same,inhibition,SRC (human); compound 1.0 µM,1.3%
same,inhibition,FLT3 (human); compound 0.1 µM,4.2%
same,inhibition,FLT3 (human); compound 1.0 µM,48.8%
same,inhibition,AKT1 (human); compound 0.1 µM,-2.2%
same,inhibition,AKT1 (human); compound 1.0 µM,1.3%
same,inhibition,FGFR3 (human); compound 0.1 µM,41.1%
same,inhibition,FGFR3 (human); compound 1.0 µM,57.9%

# Reference: the kinase profiling compilation of Christmann-Franck et al. (2016)
